This assay concerns the target VprBP (Homo sapiens, UniProt Q9Y4B6). The assay is described as follows: in vitro kinase assay with recombinant VprBP and H2A. Format: biochemical.

The results in this text go back to publication PMC3851289 (Molecular cell, 2013).

Sequence of VprBP (Q9Y4B6 whole entry): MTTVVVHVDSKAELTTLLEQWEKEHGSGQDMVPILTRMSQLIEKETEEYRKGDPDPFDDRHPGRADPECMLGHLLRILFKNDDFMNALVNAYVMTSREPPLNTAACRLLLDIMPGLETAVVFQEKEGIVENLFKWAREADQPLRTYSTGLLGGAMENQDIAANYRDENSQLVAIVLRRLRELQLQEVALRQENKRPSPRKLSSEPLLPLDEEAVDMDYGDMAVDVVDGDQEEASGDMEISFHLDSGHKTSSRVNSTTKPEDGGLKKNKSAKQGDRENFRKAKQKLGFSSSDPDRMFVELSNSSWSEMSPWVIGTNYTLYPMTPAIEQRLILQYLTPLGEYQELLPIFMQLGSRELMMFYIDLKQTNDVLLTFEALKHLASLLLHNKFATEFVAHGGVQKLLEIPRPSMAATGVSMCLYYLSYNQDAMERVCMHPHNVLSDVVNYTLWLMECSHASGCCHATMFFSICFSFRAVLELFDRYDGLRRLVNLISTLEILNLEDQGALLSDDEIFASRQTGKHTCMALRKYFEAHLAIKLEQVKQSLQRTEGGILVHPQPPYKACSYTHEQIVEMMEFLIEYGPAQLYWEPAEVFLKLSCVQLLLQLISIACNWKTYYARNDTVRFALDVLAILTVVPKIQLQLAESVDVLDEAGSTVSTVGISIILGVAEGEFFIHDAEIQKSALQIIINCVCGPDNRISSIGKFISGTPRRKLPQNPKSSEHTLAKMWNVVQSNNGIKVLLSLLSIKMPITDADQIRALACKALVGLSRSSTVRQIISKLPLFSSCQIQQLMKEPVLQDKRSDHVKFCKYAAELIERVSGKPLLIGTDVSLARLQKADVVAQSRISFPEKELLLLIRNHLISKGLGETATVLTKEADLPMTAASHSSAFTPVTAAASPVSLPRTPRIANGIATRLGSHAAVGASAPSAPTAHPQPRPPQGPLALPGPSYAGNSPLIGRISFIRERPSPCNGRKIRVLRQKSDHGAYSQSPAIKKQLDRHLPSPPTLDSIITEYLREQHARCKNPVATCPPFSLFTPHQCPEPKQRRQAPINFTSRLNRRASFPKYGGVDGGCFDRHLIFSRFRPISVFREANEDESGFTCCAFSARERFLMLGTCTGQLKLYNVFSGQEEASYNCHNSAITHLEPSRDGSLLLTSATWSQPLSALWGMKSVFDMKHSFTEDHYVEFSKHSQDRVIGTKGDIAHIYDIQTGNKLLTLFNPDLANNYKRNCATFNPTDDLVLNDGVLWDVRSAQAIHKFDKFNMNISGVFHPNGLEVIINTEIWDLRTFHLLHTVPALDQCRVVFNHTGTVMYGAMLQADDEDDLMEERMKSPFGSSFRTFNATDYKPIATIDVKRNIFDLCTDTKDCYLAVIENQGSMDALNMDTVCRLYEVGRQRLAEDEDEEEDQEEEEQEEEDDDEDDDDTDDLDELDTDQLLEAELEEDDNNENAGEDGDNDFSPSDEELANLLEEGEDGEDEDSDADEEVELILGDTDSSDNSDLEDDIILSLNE

Consider B32B3, for which the IC50 is 600 nM.

As usually defined, the IC50 is the concentration needed to halve the response being measured.
